Seven molecules from patent publication EP4745135A1 (Gluetacs Therapeutics (Shanghai) Co., Ltd., priority 2023, dated 2025) can be followed below.

For one assay, the target named is T1, CK1α (Homo sapiens, UniProt P48729+Q96SW2).
T1 construct: effects of the compounds of the present disclosure on the expression of target proteins in cells; endogenous in cells; host or cells: human PBMCs (Milecell Biotechnologies)
Briefly: Western blot, degradation of substrate protein in hPBMCs. The format is cell-based. Conditions: Western blot, 24 hours of compound treatment, compounds tested at 50 nM and 500 nM (concentration for the table not stated). (In general: A western blot detects proteins with antibodies after separation by electrophoresis.)

For the next assay, the target named is T2, IKZF1 (Homo sapiens, UniProt Q13422+Q96SW2).
T2 construct: effects of the compounds of the present disclosure on the expression of target proteins in cells; endogenous in cells; host or cells: human PBMCs (Milecell Biotechnologies)
T2 sequence (Q13422 whole entry): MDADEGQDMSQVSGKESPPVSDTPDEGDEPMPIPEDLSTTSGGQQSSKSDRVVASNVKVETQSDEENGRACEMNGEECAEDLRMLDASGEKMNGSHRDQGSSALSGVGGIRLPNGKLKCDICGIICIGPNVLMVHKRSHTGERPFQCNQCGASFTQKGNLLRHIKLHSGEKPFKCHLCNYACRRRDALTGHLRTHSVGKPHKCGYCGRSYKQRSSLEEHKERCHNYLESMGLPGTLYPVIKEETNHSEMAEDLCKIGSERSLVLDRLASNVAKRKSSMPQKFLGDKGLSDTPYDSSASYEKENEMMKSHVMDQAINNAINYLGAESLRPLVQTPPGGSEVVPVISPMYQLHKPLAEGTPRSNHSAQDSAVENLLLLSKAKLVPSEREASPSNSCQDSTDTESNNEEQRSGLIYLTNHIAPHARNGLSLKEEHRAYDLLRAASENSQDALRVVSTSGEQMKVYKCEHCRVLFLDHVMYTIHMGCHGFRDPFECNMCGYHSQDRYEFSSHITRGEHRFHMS
T2 sequence (Q96SW2 whole entry): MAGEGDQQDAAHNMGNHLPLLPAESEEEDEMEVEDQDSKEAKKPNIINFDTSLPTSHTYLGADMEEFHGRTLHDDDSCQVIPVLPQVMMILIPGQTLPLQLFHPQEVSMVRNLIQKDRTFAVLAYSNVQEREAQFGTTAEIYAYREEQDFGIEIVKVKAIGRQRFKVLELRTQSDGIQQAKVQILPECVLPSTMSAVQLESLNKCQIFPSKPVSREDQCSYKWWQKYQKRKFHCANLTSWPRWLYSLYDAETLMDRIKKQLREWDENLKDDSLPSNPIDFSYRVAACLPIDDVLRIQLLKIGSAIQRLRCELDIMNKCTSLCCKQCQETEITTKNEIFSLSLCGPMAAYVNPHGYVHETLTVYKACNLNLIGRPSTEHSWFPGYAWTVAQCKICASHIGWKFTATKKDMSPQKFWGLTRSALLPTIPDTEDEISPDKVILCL
T2 sequence (Q16531 whole entry partner): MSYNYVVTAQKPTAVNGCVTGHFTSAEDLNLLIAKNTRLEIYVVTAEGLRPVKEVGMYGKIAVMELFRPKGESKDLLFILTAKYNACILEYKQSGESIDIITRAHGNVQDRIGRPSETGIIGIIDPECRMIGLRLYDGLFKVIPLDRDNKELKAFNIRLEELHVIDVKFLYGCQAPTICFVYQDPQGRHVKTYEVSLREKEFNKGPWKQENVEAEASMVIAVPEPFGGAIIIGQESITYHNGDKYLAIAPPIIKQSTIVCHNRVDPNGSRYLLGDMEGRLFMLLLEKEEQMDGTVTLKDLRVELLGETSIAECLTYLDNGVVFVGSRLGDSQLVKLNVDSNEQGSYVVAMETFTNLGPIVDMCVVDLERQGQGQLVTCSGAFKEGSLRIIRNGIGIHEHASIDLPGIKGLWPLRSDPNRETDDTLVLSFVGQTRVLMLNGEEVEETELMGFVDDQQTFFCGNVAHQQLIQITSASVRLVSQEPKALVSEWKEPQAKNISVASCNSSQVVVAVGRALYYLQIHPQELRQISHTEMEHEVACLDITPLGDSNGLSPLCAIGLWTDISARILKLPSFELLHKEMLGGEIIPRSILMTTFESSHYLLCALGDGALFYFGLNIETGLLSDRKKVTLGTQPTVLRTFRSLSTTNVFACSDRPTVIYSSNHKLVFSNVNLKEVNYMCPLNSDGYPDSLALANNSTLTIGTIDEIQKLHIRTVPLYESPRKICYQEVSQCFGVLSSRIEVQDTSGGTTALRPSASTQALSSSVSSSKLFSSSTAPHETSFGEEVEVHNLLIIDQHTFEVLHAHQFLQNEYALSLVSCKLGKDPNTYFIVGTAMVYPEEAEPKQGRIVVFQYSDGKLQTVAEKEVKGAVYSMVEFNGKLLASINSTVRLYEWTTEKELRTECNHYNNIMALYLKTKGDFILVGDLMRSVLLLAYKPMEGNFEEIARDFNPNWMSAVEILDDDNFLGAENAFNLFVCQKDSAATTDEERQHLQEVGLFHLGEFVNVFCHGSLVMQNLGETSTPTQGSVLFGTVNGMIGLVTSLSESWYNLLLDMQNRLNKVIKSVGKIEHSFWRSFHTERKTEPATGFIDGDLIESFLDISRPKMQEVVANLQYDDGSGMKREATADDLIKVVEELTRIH
The description is as above. The format is cell-based. The settings on record: Western blot, 24 hours of compound treatment, compounds tested at 50 nM and 500 nM (concentration for the table not stated).

For the next assay, the target named is T3, IKZF2 (Homo sapiens, UniProt Q96SW2+Q9UKS7).
T3 construct: effects of the compounds of the present disclosure on the expression of target proteins in cells; endogenous in cells; host or cells: human PBMCs (Milecell Biotechnologies)
T3 sequence (Q9UKS7 whole entry): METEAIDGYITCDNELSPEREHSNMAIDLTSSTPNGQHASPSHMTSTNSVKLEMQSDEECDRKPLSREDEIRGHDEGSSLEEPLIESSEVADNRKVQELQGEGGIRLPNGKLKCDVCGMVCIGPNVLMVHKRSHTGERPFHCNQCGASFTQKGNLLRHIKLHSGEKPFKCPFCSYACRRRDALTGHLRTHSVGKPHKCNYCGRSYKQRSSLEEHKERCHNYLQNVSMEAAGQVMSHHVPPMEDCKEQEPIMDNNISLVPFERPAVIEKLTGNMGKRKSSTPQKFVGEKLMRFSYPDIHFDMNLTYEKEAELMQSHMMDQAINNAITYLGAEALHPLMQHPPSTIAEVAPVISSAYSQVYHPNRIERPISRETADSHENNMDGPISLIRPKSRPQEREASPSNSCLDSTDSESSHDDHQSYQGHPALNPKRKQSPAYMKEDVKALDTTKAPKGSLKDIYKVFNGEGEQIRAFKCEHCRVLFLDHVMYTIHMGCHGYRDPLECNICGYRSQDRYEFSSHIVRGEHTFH
T3 sequence (Q96SW2 whole entry): as the sequence (Q96SW2 whole entry) above
T3 sequence (Q16531 whole entry partner): as the sequence (Q16531 whole entry partner) above
The assay is described as above. Conditions: Western blot, 24 hours of compound treatment, compounds tested at 50 nM and 500 nM (concentration for the table not stated). The format is cell-based.

The next assay deals with T4, IKZF3 (Homo sapiens, UniProt Q96SW2+Q9UKT9).
T4 construct: effects of the compounds of the present disclosure on the expression of target proteins in cells; endogenous in cells; host or cells: human PBMCs (Milecell Biotechnologies)
T4 sequence (Q9UKT9 whole entry): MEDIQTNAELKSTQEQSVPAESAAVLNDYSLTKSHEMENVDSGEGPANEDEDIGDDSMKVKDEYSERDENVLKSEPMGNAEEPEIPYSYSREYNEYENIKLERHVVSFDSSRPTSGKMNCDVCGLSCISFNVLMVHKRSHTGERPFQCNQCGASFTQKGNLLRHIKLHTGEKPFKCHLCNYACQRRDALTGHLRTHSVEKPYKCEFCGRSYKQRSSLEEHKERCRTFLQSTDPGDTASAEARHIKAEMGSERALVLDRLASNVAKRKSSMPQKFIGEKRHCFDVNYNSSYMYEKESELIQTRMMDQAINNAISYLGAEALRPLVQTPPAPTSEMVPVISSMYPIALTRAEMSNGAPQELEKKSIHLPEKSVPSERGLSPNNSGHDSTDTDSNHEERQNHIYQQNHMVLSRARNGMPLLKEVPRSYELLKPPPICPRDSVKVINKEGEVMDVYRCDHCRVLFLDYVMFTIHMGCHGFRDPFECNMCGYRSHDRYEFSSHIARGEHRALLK
T4 sequence (Q96SW2 whole entry): as the sequence (Q96SW2 whole entry) above
T4 sequence (Q16531 whole entry partner): as the sequence (Q16531 whole entry partner) above
The assay is described as above. The format is cell-based. The settings on record: Western blot, 24 hours of compound treatment, compounds tested at 50 nM and 500 nM (concentration for the table not stated).

The next assay addresses T5, WEE1 (Homo sapiens, UniProt P30291+Q96SW2).
T5 construct: effects of the compounds of the present disclosure on the expression of target proteins in cells; endogenous in cells; host or cells: human PBMCs (Milecell Biotechnologies)
The description is as above. The format is cell-based. Conditions: Western blot, 24 hours of compound treatment, compounds tested at 50 nM and 500 nM (concentration for the table not stated).

The subject of a further assay is GSPT1. Described as above. The format is cell-based, Human. The settings on record: Western blot, 24 hours of compound treatment, compounds tested at 50 nM and 500 nM (concentration for the table not stated).
The target in assay [1] is T6, human Cereblon WT GST-tagged protein (Homo sapiens, UniProt Q96SW2).
T6 construct: purchased CISBIO 64BDCRBNPEH
T6 sequence (Q96SW2 whole entry): as the sequence (Q96SW2 whole entry) above
The assay can be described thus: CRBN-binding affinity, HTRF (CEREBLON BINDING kit). Conditions: for inhibition at 0.5 µM: read-out: Inhibition Rate at 0.5 µM (%); for inhibition at 2 µM: read-out: Inhibition Rate at 2 µM (%). In general terms: In TR-FRET formats the signal depends on donor and acceptor labels being close together.

For assay [2], the system named is Human multiple myeloma cell (MM.1S). Briefly: Tumor cell proliferation inhibition (CellTiter-Meiluncell luminescent cell viability assay). The settings on record: for inhibition at 0.01 µM / inhibition at 0.5 µM: Homo sapiens, MM1.S, 96 h; for inhibition at 0.01 µM: read-out: Inhibition Rate at 10 nM (%); for inhibition at 0.5 µM: read-out: Inhibition Rate at 500 nM (%).

The test system of assay [3] is Human acute T lymphocytic leukemia cell (Molt4). Described as above. The settings on record: MOLT-4, 96 h; for inhibition at 0.01 µM: read-out: Inhibition Rate at 10 nM (%); for inhibition at 0.5 µM: read-out: Inhibition Rate at 500 nM (%).
Description: The tumor cells used herein were cultured in a cell culture medium listed in table 2 at 37°C in an incubator with 5% CO2. Prior to experimentation, all cell lines used were correctly identified by STR profiling, and tested negative for mycoplasma contamination using a mycoplasma detection kit through routine screenings.
The IC50 values of the compounds of the present disclosure (including the compounds in Table 1 and Examples) were determined using the CellTiter-Meiluncell Luminescent Cell Viability Assay Kit from Dalian Meilun Biotech Co., Ltd. The detailed procedure is as follows: Tumor cells were seeded in 96-well cell culture plates at the densities specified in Table 3. On the following day, the test compounds of the present disclosure were subjected to serial dilution. The dilution can be performed according to one of the following two methods: • (1) The first dilution method: The test compounds of the present disclosure (including the compounds in Table 1 and Examples) were subjected to 5-fold serial dilutions starting from a highest concentration of 2000 µM, resulting in a total of 9 concentrations from high to low (2000, 400, 80, 16, 3.2, 0.64, 0.128, 0.0256, 0.00512 µM). Subsequently, 0.5 µL of the test compound dilution was transferred into the 96-well plate containing the cells, with each well containing 100 µL of cell culture medium. […] Into the 96-well plate, the diluted test compounds and corresponding detection reagents were added, resulting in final test compound concentrations of 500 nM and 10 nM, respectively. The experimental procedure is described below using the diluted 2 µM test compound as an example.
0.5 µL of the aforementioned diluted compound of the present disclosure (including the compounds in Table 1 and Examples) was added to the seeded cells in 100 µL of medium, yielding a final test compound concentration of 10 nM. After the cells were treated with the compounds of the present disclosure for a specified period, the cell viability assay reagent was added to the culture medium according to the kit's instructions to determine cell viability. […] All controls were treated using the same procedure as the compounds of the present disclosure. The growth inhibition curves for the compounds of the present disclosure were plotted using Prism GraphPad software, and the IC50 values were calculated therefrom.
In assay [4] the test system is Human myeloid monocytic leukemia cell (MV-4-11). The assay is described as above. Conditions: MV4-11, 96 h; for inhibition at 0.01 µM: read-out: Inhibition Rate at 10 nM (%); for inhibition at 0.5 µM: read-out: Inhibition Rate at 500 nM (%).

The structures appear in SMILES notation.

T1 sequence (P48729 whole entry): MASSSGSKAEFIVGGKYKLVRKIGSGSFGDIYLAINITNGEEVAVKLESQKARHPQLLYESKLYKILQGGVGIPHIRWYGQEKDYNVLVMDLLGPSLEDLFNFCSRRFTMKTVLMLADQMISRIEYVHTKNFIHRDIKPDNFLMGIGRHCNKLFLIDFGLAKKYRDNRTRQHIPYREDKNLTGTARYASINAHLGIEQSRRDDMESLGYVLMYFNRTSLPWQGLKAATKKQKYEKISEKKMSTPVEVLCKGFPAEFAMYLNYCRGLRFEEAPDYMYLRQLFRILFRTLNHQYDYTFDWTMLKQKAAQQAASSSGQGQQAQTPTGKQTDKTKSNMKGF
T1 sequence (Q96SW2 whole entry): as the sequence (Q96SW2 whole entry) above
T1 sequence (Q16531 whole entry partner): as the sequence (Q16531 whole entry partner) above
T5 sequence (P30291 whole entry): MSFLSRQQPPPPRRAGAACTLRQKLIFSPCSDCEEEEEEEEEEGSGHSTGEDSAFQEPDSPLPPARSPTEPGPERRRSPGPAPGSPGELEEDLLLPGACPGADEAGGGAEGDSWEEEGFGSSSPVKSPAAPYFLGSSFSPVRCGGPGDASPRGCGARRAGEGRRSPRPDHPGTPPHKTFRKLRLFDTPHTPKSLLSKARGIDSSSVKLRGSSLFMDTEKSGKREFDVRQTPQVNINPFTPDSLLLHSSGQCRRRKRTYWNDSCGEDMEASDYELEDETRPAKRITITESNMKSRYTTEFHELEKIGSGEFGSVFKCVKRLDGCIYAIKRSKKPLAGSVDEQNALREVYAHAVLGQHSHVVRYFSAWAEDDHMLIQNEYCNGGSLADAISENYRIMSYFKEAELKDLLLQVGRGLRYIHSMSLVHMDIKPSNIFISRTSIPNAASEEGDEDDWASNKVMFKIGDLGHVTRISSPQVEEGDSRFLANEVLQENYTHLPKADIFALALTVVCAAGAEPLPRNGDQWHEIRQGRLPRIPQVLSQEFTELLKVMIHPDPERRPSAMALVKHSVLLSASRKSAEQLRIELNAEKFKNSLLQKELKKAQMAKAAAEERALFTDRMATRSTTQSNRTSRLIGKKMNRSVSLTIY
T5 sequence (Q96SW2 whole entry): as the sequence (Q96SW2 whole entry) above
T5 sequence (Q16531 whole entry partner): as the sequence (Q16531 whole entry partner) above

The term inhibition denotes the drop in the measured response relative to a control, in per cent. Regarding `O=C1CCC(N2Cc3cc(CN4CCN(C(c5ccc(F)cc5)c5ccc(F)cc5)CC4)ccc3C2=S)C(=O)N1` (centres unmarked) [GT-07736, 3-(5-((4-(bis(4-fluorophenyl)methyl)piperazin-1-yl)methyl)-1-thioxoisoindolin-2-yl)piperidine-2,6-dione], the “CK1α substrate protein remaining %” value at CK1α is reported as “B (80%< substrate protein remaining %≤ 100%)”. At IKZF1, the “IKZF 1 substrate protein remaining %” value is “A (0% ≤ substrate protein remaining % ≤ 80%)”. Besides, the “IKZF2 substrate protein remaining %” value on IKZF2 is on record as “B (80%< substrate protein remaining %≤ 100%)”. Further, the “IKZF3 substrate protein remaining %” value on IKZF3 was “A (0% ≤ substrate protein remaining % ≤ 80%)”. Also, on WEE1, the “Wee1 substrate protein remaining %” value is “A (0% ≤ substrate protein remaining % ≤ 80%)”. Besides, the “GSPT1 substrate protein remaining %” value in the assay on GSPT1 was “A (0% ≤ substrate protein remaining % ≤ 80%)”. The inhibition at 0.5 µM was 20 to 30% in [1], 80 to 100% in assay [2], 40 to 50% in [3] and 40 to 60% in [4]. The inhibition at 2 µM in [1] was in the range of 60 to 80%. For the same molecule, the inhibition at 0.01 µM in [2] was 10 to 20%; in assay [3] it was 10 to 20%; in assay [4], 10 to 18%.
As to `O=C1CCC(N2Cc3cc(CN4C5CCC4CN(c4cccc(Cl)c4Cl)C5)ccc3C2=S)C(=O)N1` (centres unmarked) [GT-08480, 3-(5-((3-(2,3-dichlorophenyl)-3,8-diazabicyclo[3.2.1]octan-8-yl)methyl)-1-thioxoisoindolin-2-yl)piperidine-2,6-dione], the “CK1α substrate protein remaining %” value on CK1α is listed as “B (80%< substrate protein remaining %≤ 100%)”. The “IKZF 1 substrate protein remaining %” value at IKZF1 is given as “B (80%< substrate protein remaining %≤ 100%)”. For the same molecule, the “IKZF2 substrate protein remaining %” value on IKZF2 was “B (80%< substrate protein remaining %≤ 100%)”. The “IKZF3 substrate protein remaining %” value on IKZF3 is given as “B (80%< substrate protein remaining %≤ 100%)”. In addition, the “Wee1 substrate protein remaining %” value on WEE1 is reported as “B (80%< substrate protein remaining %≤ 100%)”. Further, the “GSPT1 substrate protein remaining %” value in the assay with GSPT1 is on record as “A (0% ≤ substrate protein remaining % ≤ 80%)”. The inhibition at 0.5 µM in assay [1] was 40 to 53%; in assay [2] it was 80 to 100%; in [3], 80 to 100%; in assay [4], 80 to 100%. The inhibition at 2 µM in assay [1] lay in the range of 80 to 100%. In addition, the values for the inhibition at 0.01 µM in assay [2], in assay [3] and in [4] were 20 to 30%, 0 to 5% and 25 to 30%, respectively.
As to `O=C1CCC(N2Cc3cc(CN4CCC(c5nccc(Cl)c5Cl)CC4)ccc3C2=S)C(=O)N1` (centres unmarked) [GT-08488, 3-(5-((4-(3,4-dichloropyridin-2-yl)piperidin-1-yl)methyl)-1-thioxoisoindolin-2-yl)piperidine-2,6-dione], the “CK1α substrate protein remaining %” value at CK1α is “B (80%< substrate protein remaining %≤ 100%)”. The “IKZF 1 substrate protein remaining %” value at IKZF1 is reported as “B (80%< substrate protein remaining %≤ 100%)”. Moreover, the “IKZF2 substrate protein remaining %” value on IKZF2 is “B (80%< substrate protein remaining %≤ 100%)”. At IKZF3, the “IKZF3 substrate protein remaining %” value is “B (80%< substrate protein remaining %≤ 100%)”. The “Wee1 substrate protein remaining %” value on WEE1 was “B (80%< substrate protein remaining %≤ 100%)”. In addition, the “GSPT1 substrate protein remaining %” value in the assay with GSPT1 was “A (0% ≤ substrate protein remaining % ≤ 80%)”. Also, the inhibition at 0.5 µM in assay [1] lay within 60 to 80%; in [3], 70 to 80%; in assay [4], 80 to 100%. In addition, the inhibition at 2 µM in assay [1] was 80 to 100%. In addition, the inhibition at 0.01 µM in [2] was 10 to 20%; in [3], 10 to 20%; in [4], 18 to 25%. Besides, the “Inhibition Rate at 500 nM (%)” value in [2] (MM.1S, 500 nM, 96 hours) is listed as “la8”.
For `Cc1ccc(N2CCN(Cc3ccc4c(c3)CN(C3CCC(=O)NC3=O)C4=S)CC2)cc1` (centres unmarked) [GT-08603, 3-(1-thioxo-5-((4-(p-tolyl)piperazin-1-yl)methyl)isoindolin-2-yl)piperidine-2,6-dione], the “CK1α substrate protein remaining %” value on CK1α was “B (80%< substrate protein remaining %≤ 100%)”. Besides, the “IKZF 1 substrate protein remaining %” value at IKZF1 is reported as “B (80%< substrate protein remaining %≤ 100%)”. The “IKZF2 substrate protein remaining %” value on IKZF2 is on record as “B (80%< substrate protein remaining %≤ 100%)”. Moreover, at IKZF3, the “IKZF3 substrate protein remaining %” value is given as “B (80%< substrate protein remaining %≤ 100%)”. Moreover, the “Wee1 substrate protein remaining %” value on WEE1 was “B (80%< substrate protein remaining %≤ 100%)”. Moreover, the “GSPT1 substrate protein remaining %” value with GSPT1 is “A (0% ≤ substrate protein remaining % ≤ 80%)”. In addition, the inhibition at 0.5 µM lay within 53 to 60% in assay [1], 50 to 60% in assay [2], 40 to 50% in assay [3] and 80 to 100% in assay [4]. In addition, the inhibition at 2 µM in assay [1] lay in the range of 80 to 100%. The inhibition at 0.01 µM in assay [2] lay in the range of 30 to 40%; in assay [3] it was 0 to 5%; in assay [4], 40 to 60%.
With `O=C1CCC(N2Cc3cc(CN4CCN(c5cc(Cl)ccc5Cl)CC4)ccc3C2=S)C(=O)N1` (centres unmarked) [GT-08611, 3-(5-((4-(2,5-dichlorophenyl)piperazin-1-yl)methyl)-1-thioxoisoindolin-2-yl)piperidine-2,6-dione], at CK1α, the “CK1α substrate protein remaining %” value is “B (80%< substrate protein remaining %≤ 100%)”. Also, the “IKZF 1 substrate protein remaining %” value at IKZF1 was “B (80%< substrate protein remaining %≤ 100%)”. Moreover, the “IKZF2 substrate protein remaining %” value on IKZF2 was “B (80%< substrate protein remaining %≤ 100%)”. For the same molecule, the “IKZF3 substrate protein remaining %” value at IKZF3 is “B (80%< substrate protein remaining %≤ 100%)”. In addition, the “Wee1 substrate protein remaining %” value on WEE1 is on record as “B (80%< substrate protein remaining %≤ 100%)”. Besides, the “GSPT1 substrate protein remaining %” value with GSPT1 is given as “A (0% ≤ substrate protein remaining % ≤ 80%)”. Also, the inhibition at 0.5 µM in assay [1] was in the range of 30 to 40%; in [2], 50 to 60%; in [3], 70 to 80%; in assay [4] it was 80 to 100%. Besides, the inhibition at 2 µM in assay [1] was 60 to 80%. The inhibition at 0.01 µM in [2] was in the range of 20 to 30%; in assay [3] it was 0 to 5%; in [4], 18 to 25%.
As to `O=C1CCC(N2Cc3cc(CN4CCC(c5ccccc5)CC4)ccc3C2=S)C(=O)N1` (centres unmarked) [GT-08616, 3-(5-((4-phenylpiperidin-1-yl)methyl)-1-thioxoisoindolin-2-yl)piperidine-2,6-dione], on CK1α, the “CK1α substrate protein remaining %” value is on record as “B (80%< substrate protein remaining %≤ 100%)”. Further, the “IKZF 1 substrate protein remaining %” value on IKZF1 was “B (80%< substrate protein remaining %≤ 100%)”. In addition, the “IKZF2 substrate protein remaining %” value on IKZF2 is listed as “B (80%< substrate protein remaining %≤ 100%)”. The “IKZF3 substrate protein remaining %” value on IKZF3 is given as “B (80%< substrate protein remaining %≤ 100%)”. Besides, the “Wee1 substrate protein remaining %” value on WEE1 is “B (80%< substrate protein remaining %≤ 100%)”. Besides, the “GSPT1 substrate protein remaining %” value in the assay with GSPT1 is reported as “A (0% ≤ substrate protein remaining % ≤ 80%)”. The inhibition at 0.5 µM in assay [1] lay within 53 to 60%; in [2], 50 to 60%; in assay [3] it was 40 to 50%; in assay [4], 60 to 80%. Moreover, in [1], the inhibition at 2 µM was in the range of 80 to 100%. Moreover, the figures for the inhibition at 0.01 µM in assay [2], in assay [3] and in assay [4] were 20 to 30%, 10 to 20% and -5 to 0%, respectively.
For `O=C1CCC(N2Cc3cc(CN4CCC(c5ccccc5C(F)(F)F)CC4)ccc3C2=S)C(=O)N1` (centres unmarked) [GT-08622, 3-(1-thioxo-5-((4-(2-(trifluoromethyl)phenyl)piperidin-1-yl)methyl)isoindolin-2-yl)piperidine-2,6-dione], on CK1α, the “CK1α substrate protein remaining %” value is “B (80%< substrate protein remaining %≤ 100%)”. Further, the “IKZF 1 substrate protein remaining %” value at IKZF1 is “B (80%< substrate protein remaining %≤ 100%)”. At IKZF2, the “IKZF2 substrate protein remaining %” value is recorded as “A (0% ≤ substrate protein remaining % ≤ 80%)”. Moreover, the “IKZF3 substrate protein remaining %” value at IKZF3 is on record as “B (80%< substrate protein remaining %≤ 100%)”. Moreover, the “Wee1 substrate protein remaining %” value at WEE1 is on record as “B (80%< substrate protein remaining %≤ 100%)”. Further, the “GSPT1 substrate protein remaining %” value in the assay with GSPT1 is “A (0% ≤ substrate protein remaining % ≤ 80%)”. Also, the inhibition at 0.5 µM in [1] was 40 to 53%; in [2] it was 70 to 80%; in assay [3] it was 80 to 100%; in assay [4] it was 80 to 100%. In addition, in [1], the inhibition at 2 µM fell in the range of 80 to 100%. Moreover, the inhibition at 0.01 µM is 10 to 20% in [2], -5 to 0% in [3] and 10 to 18% in [4].
